# Data taken from patent US10307410B2, “Mcl-1 modulating compounds for cancer treatment” (CENTRE REGIONAL DE LUTTE CONTRE LE CANCER FRANCOIS BACLESSE, priority 2014, dated 2019).
# Assays:
# Assay type in all cases: cell-based
# Noxa/Mcl-1 interaction = target: T1, Noxa/Mcl-1 interaction (Homo sapiens, UniProt Q07820); assay: BRET assay, Noxa/Mcl-1 interaction; details: BRET in Hela cells, 10 μM, 16 hours
# T1 construct: expressed in transfected cells; host or cells: HeLa cells
# Experimental: (§1) Hela cells were seeded on 6-well plates and transfected with 200 ng/well of plasmid pRLuc-Bax, pRLuc-Puma or pRLuc-Noxa coding for BRET donors and 1 µg/well of peYFP-Bcl-xL or peYFP-Mcl-1 coding for BRET acceptors (or with pCMV-Bcl-xL or pCMV-Mcl-1 for control). Twenty-four hours after transfection, cells were trypsinized and re-seeded into white 96 well plate flat bottom, incubated for another day, and then treated with drugs for 16 hours at 10 μM. Light emission at 485 nm and 530 nm was measured consecutively using the Mithras fluorescence-luminescence detector LB 940 (Berthold) after adding the luciferase substrate, coelenterazine H (Uptima) at a final concentration of 5 μM. BRET ratios were calculated as described [Terrillon et al. (2003) Mol Endocrinol 17, 677-691, Vo et al. (2012) Eur J Med Chem., 286-93].
# [1] = tested on: IGROV1-R10 ovarian cancer cells; assay: DNA content histograms (sub-G1) by flow cytometry
# Experimental: (§2) Exponentially growing cells were transfected by siRNA as described below, and after 48 h, cells were continuously exposed to (Het)aromatic oligosystems (10, 25 or 50 μM) dissolved in DMSO (<0.1% of total volume) for 4 to 24 supplementary hours.
# Cells were seeded in 25 cm^2 flasks the day before to reach 30-50% confluency at the time of transfection. The transfection INTERFERin™ reagent (Polyplus Transfection, Strasbourg. France) was added to siRNA diluted in Opti-MEM® reduced serum medium (Invitrogen, Cergy-Pontoise, France) and complexes formation was allowed to proceed for 15 min at RT before being applied to cells. […]
# (§3) Adherent and floating cells were pooled, washed with 1×PBS and centrifuged at 200 g for 5 min before staining by Annexin V, propidium iodide or both, as recommended by the manufacturer (Roche Diagnostic, Indianapolis, USA). Briefly, 100 μl of Annexin V—Flit or propidium iodide or both were added on the cells pellet (10^6 cells) and incubated 15 minutes at room temperature in obscurity. 500 μl of sample buffer was then added on the suspensions that were thereafter analyzed using a Gallios flow cytometer (Beckman Coulter, Roissy, France) and cell cycle distribution was determined using Kaluza acquisition software (Beckman Coulter).
# [2] = tested on: IGROV1-R10 ovarian cancer cells; assay: Nuclear morphology after DAPI staining; parameters: key to Apoptotic nuclear features: +: a few condensed or fragmented nuclei are observable after DAPI staining; ++: numerous condensed or fragmented nuclei are observable after DAPI staining (20-50%); +++: most of the nuclei are condensed or fragmented
# Experimental: as §2
# (§4) Cells were seeded in 25 cm^2 flasks the day before to reach 30-50% confluency at the time of transfection. The transfection INTERFERin™ reagent (Polyplus Transfection, Strasbourg. France) was added to siRNA diluted in Opti-MEM® reduced serum medium (Invitrogen, Cergy-Pontoise, France) and complexes formation was allowed to proceed for 15 min at RT before being applied to cells. The final siRNA concentration in the flasks was 20 nM.
# After treatment, both detached and adherent cells were pooled after trypsinization, applied to a polylysine-coated glass slide by cytocentrifugation and fixed with a solution of ethanol/chloroform/acetic acid (6:3:1). The preparations were then incubated for 15 min at room temperature with 1 μg/ml DAPI solution (Boehringer Mannheim-Roche, Mannheim, Germany), washed in distillated water, mounted under a coverslip in Mowiol (Calbiochem) and analyzed under a fluorescence microscope (BX51, Olympus, Rungis, France).
# Cells were fixed with 2.5% glutaraldehyde in PBS buffer, included in agar, rinsed in Sorensen's buffer, post-fixed in osmium tetroxide 1% in Sorensen's buffer, deshydrated in ethanol and embedded in EPON resin. Ultrathin sections were cut and stained with uranyl acetate and lead citrate and examined using a JEOL1011 transmission electron microscope.
# [3] = tested on: IGROV1-R10 ovarian cancer cells; assay: Cellular morphology / cell detachment, molecule alone or with Bcl-xL targeting siRNA
# Experimental: as §2, §4
# Mcl-1/Puma interaction = target: T2, Mcl-1/Puma interaction (Homo sapiens, UniProt Q07820); assay: BRET assay, Mcl-1/Puma interaction; details: BRET in Hela cells, 16 hours
# T2 construct: expressed in transfected cells; host or cells: HeLa cells
# Experimental: as §1
# [4] = tested on: IGROV1-R10 ovarian cancer cells; assay: Annexin V/propidium iodide flow cytometry; details: IGROV1-R10, 10 nM siXL1 48 h then 25 μM Pyridoclax 24 h
# Experimental: as §3
# [5] = IGROV1-R10, Pyridoclax associated to siXL1
# T2 sequence (Q07820 whole entry): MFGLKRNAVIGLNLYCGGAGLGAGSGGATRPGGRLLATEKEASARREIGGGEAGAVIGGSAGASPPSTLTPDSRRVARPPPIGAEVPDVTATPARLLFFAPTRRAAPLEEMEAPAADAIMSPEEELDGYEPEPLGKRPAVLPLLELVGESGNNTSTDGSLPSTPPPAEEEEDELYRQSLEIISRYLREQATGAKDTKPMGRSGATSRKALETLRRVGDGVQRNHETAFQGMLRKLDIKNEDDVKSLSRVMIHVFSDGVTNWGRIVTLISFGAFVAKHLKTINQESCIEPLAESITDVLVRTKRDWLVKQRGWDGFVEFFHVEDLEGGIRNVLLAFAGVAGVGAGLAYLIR
# T1 sequence (Q07820 whole entry): as above
smiles,measurement,setting,value
"Cc1cc(-c2ncc(-c3cccnc3)cc2/C=C/c2ccccc2)cnc1-c1cccnc1 [Pyridoclax, 5,6′-di(pyridin-3-yl)-5′-methyl-3-((E)-styryl)-2,3′-bipyridine]",effect on Noxa/Mcl-1 interaction,Noxa/Mcl-1 interaction,able to disrupt
same,sub-G1 Peak on the DNA content histogram,"[1]; IGROV1-R10, 10 nM siXL1 48 h then 25 μM Pyridoclax 24 h",over 50%
same,time after beginning of exposure at which apoptosis was observed,"[1]; IGROV1-R10, siXL1 + Pyridoclax",2 to 4 h
same,events in sub-G1 fraction,"[1]; IGROV1-R10, siXL1 + Pyridoclax, after 4 h exposure",37%
same,Sub-G1 (%),[1]; Molecule + Bcl-xL targeting siRNA,53.6%
same,nuclear morphology (DAPI staining and electron microscopy),[2]; [5],nuclear condensations and fragmentations
same,Apoptotic nuclear features,"[2]; Molecule + Bcl-xL targeting siRNA, DAPI staining",+++
same,effects in response to 10 μM,"[3]; IGROV1-R10, Pyridoclax 10 μM associated to siXL1 (data not shown)",also observed in a lower extend
same,Cell detachment,[3]; [5],strong cell detachment
same,concentration at which effects are optimal,[3]; [5],25 µM
same,"cell death, agent on its own","[3]; IGROV1-R10, single agent",neither Pyridoclax nor the Bcl-xL targeting siRNA (siXL1) induced massive cell death on their own
same,effect on Mcl-1/Puma interaction,Mcl-1/Puma interaction; 10 μM,able to disrupt
same,inhibition at 10 µM,Mcl-1/Puma interaction,~50%
same,fraction of annexin V positive cells,[4],60%
